Data published in patent US11534377B2, “Hair growth agent” (KOBAYASHI PHARMACEUTICAL CO., LTD., priority 2016, dated 2022).

What was measured:
[1] = tested on: transplanted mice (hair follicles of haired mice transplanted into the back of nude mice); assay: Hair shaft growth in nude mice transplanted with hair follicles of haired mice (Example 1); format: in vivo; settings: for Hair shaft growth rate: topical 4 times per day
Experimental: Hair follicles (surgically prepared) of haired mice were transplanted into the back of nude mice (from Sankyo Labo Service Corporation, Inc.) to produce transplanted mice manipulated such that each hair can be distinguished and a plurality of hair cycles can be observed. First, a 50% ethanol aqueous solution (12.5 μl, not containing the agent) was applied to the transplanted mice 4 times per day during new hair growth in the first hair cycle to obtain reference data of a hair cycle. After the hair had shed following the end of the first hair cycle, a 50% ethanol aqueous solution (12.5 μl) containing a predetermined amount of the agent was applied to the mice 4 times per day to obtain data on effects of the agent. After the hair had shed following the end of the second hair cycle, a 50% ethanol aqueous solution (12.5 μl) containing the agent in the same amount as that in the second hair cycle was applied to the mice in a similar manner to the second hair cycle to obtain reproducibility data on effects of the agent. As the agent, D-chiro-inositol (from Wako Pure Chemical Industries Ltd.) and its stereoisomers as chiro-inositol, L-chiro-inositol (from Tokyo Chemical Industry Co., Ltd.), myo-inositol (from Wako Pure Chemical Industries Ltd.), allo-inositol (cis-1,2,3,4-trans-5,6-cyclohexaneheaxol) (from Tokyo Chemical Industry Co., Ltd.), epi-inositol (cis-1,2,3,4,5-trans-6-cyclohexanehexaol) (from Tokyo Chemical Industry Co., Ltd.), muco-inositol (cis-1,2,4,5-trans-3,6-cyclohexanehexaol) (from Tokyo Chemical Industry Co., Ltd.), and scyllo-inositol (cis-1,3,5-trans-2,4,6-cyclohexanehexaol) (from Tokyo Chemical Industry Co., Ltd.) were used. For each agent solution, the lengths of hair shafts were measured every 2 to 3 days, an average length of hair shafts that changed day by day was plotted as one dot at each time point in a graph, and a similar plotting was repeated for 3 to 4 mice. The results were shown in Tables 1 to 14 and FIGS. 1 to 14.

hair papilla cells = assay: Hair papilla cell proliferation test by two-dimensional culture (Example 5); format: cell-based, C57BL/6N mouse; settings: final concentration 0.1 wt %, cultured for 3 days; FIG. 18
Source text: Hair papilla cells transmit new hair growth signals to hair matrix cells via signaling substances to activate hair matrix cells, thereby controlling processes of new hair growth and hair elongation. Accordingly, the hair shaft growth promoting activity and the like of test substances can be evaluated from a proliferation rate of hair papilla cells. In this Example, the skin of the whisker region was taken from a C57BL/6N mouse and hair papillae were harvested from isolated whisker follicles under a stereo microscope. Six hair papillae were fixed to the bottom surface of a 60 mm-plastic petri dish (from Sumitomo Bakelite Co., Ltd.), and the primary culture was performed at 37° C. in the presence of 5% CO2 by using a hair papilla cell culture medium in which 2% FCS (fetal calf serum), 0.6% ITT (insulin-transferrin-triiodothyronine mixture), 1% BPE (bovine pituitary extract), and 0.6% Cyp (cyproterone solution) were added to a PCGM base medium. Afterwards, the medium was replaced every 2 to 3 days and subculturing was repeated about every two weeks. In this experiment, hair papilla cells at passage 3 or less were used. […] The number of cells after culturing for 3 days was counted by using a hemocytometer, and proliferation rates in test solution A and the test solution B were calculated relative to 100% for a proliferation rate in the negative control as 100%.

[2] = tested on: hair papilla cell spheroids; assay: Hair papilla cell proliferation test by three-dimensional culture (Example 6); format: cell-based, C57BL/6N mouse; settings: final concentrations 0.05 wt %, 0.1 wt %, and 1 wt %, cultured for 3 days; FIG. 19
Experimental: In this Example, hair papilla cells prepared in a similar manner to Example 5 were seeded in a 96-well U-bottom microplate for cell culture (from Sumitomo Bakelite Co., Ltd.) at 6,000 cells/well and centrifuged with a plate centrifuge at room temperature and at a rotating speed of 1,000 rpm for 1 minute to yield three-dimensional hair papilla cell spheroids. The spheroids were cultured for 3 days by using each of test solutions A1 to A3 that were hair papilla cell culture media to which D-chiro-inositol dissolved in PBS was added at a final concentration of 0.05 wt %, 0.1 wt %, or 1 wt %; test solutions B1 to B3 that were hair papilla cell culture media to which myo-inositol dissolved in PBS was added at a final concentration of 0.05 wt %, 0.1 wt %, or 1 wt %; and a negative control that was a hair papilla cell culture medium to which PBS alone was added. The spheroids after culturing for 3 days were imaged by using a VHX2000 digital microscope (Keyence Corporation), and the area of the spheroids was calculated by using a digital microscope analysis tool. By calculating a spheroid area increase rate in the test solutions A1 to A3 and B1 to B3, relative to an area increase rate in the negative control as 100%, the proliferation of hair papilla cells in conditions further close to in vivo condition was quantified.

[3] = tested on: crab-eating macaque (Macaca fascicularis); assay: New hair growth test in monkey (Example 4); format: in vivo; settings: 1 wt % in 50% ethanol, once/day 150 μl, 8 weeks, sparse hair region of head; number of hair before application = 100%
Source text: A crab-eating macaque (Macaca fascicularis) is a monkey (class: Mammalia, order: Primates, family: Cercopithecidae, genus: Macaca) that has many similarities to humans, such as the morphology of the temporomandibular joint, and is frequently employed as a laboratory animal for morphological studies and medication studies due to its easy breeding and rearing. The crab-eating macaque is known for the replacement of the body hair in a six-month cycle in a year. Among aged female monkeys that had babies repeatedly and aged male monkeys of low social status, individuals with observed symptoms of hair thinning or sparse hair emerge with low frequency. […] In this Example, to an aged crab-eating macaque (19 years of age, male) having sparse body hair of the head, a test solution A in which D-chiro-inositol (from Wako Pure Chemical Industries Ltd.) was dissolved in 50% ethanol at a concentration of 1 wt % and a test solution B in which myo-inositol was dissolved in 50% ethanol at a concentration of 1 wt % were applied every day to about 4 cm^2-sparse hair regions (2 cm×2 cm) in both left and right sides across the median line of the head of the macaque. The application (once/day, 150 μl) was performed over 8 weeks, and 50% ethanol was applied as a negative control. At the end of 8 weeks, hair shafts in the applied regions were cut with hair clippers while leaving 2 to 3 mm from pores toward the outside of the body, and the total number of hair protruded from the pores in the applied regions was counted. A new hair growth rate was calculated as an increase rate in the number of hair at the end of 8 weeks, relative to the number of hair protruded from pores in the same regions before the application at the start of the test as 100%.

obese mice = settings: insulin sensitivity increasing substances, PTL 2; cited from earlier work
[4] = 5 wt % in 50% ethanol, second hair cycle
[5] = 5 wt % in 50% ethanol, third hair cycle (reproducibility)
[6] = 5 wt %, third hair cycle (reproducibility)
[7] = 1 wt % in 50% ethanol, second hair cycle
[8] = 1 wt % in 50% ethanol, third hair cycle (reproducibility)
[9] = 1 wt %, third hair cycle (reproducibility)

Structure (SMILES)	Hair growth activity (hair shaft growth rate and maximum length vs reference data) ([1]; 5 wt %)	Hair shaft growth rate [1, 4] [mm/day]	Hair shaft growth rate [1, 5] [mm/day]	Hair shaft maximum length ([1]; 5 wt %, second hair cycle) [mm]	Hair shaft maximum length [1, 6] [mm]	Hair papilla cell proliferation rate vs negative control (hair papilla cells)	Hair papilla cell spheroid area vs negative control [2]	New hair growth rate [3] [%]	Hair shaft growth rate [1, 7] [mm/day]	Hair shaft growth rate [1, 8] [mm/day]	Hair shaft maximum length ([1]; 1 wt %, second hair cycle) [mm]	Hair shaft maximum length [1, 9] [mm]	Hair growth activity (hair shaft growth rate and maximum length vs reference data) ([1]; 5 wt % or 1 wt %)	Effect on hair loss (obese mice)
OC1C(O)C(O)C(O)C(O)C1O (stereo not drawn) [muco-inositol, cis-1,2,4,5-trans-3,6-cyclohexanehexaol]	hair growth activity was not confirmed	0.35 ± 0.03	0.36 ± 0.10	4.9 ± 0.3	5.1 ± 0.3	–	–	–	–	–	–	–	–	–
O[C@H]1[C@H](O)[C@@H](O)[C@H](O)[C@@H](O)[C@H]1O [myo-inositol, cis-1,2,3,5-trans-4,6-cyclohexanehexaol]	–	0.37 ± 0.05	0.39 ± 0.06	4.6 ± 0.5	4.7 ± 0.5	no significant difference was observed	no significant differences were observed	107.1	0.45 ± 0.03	0.44 ± 0.08	4.9 ± 0.5	5.0 ± 0.5	hair growth activity was not confirmed	–
CN(C)C(=N)N=C(N)N [metformin]	–	–	–	–	–	–	–	–	–	–	–	–	–	prevented hair loss or slowed progress of hair loss
O[C@H]1[C@H](O)[C@@H](O)[C@H](O)[C@@H](O)[C@@H]1O [scyllo-inositol, cis-1,3,5-trans-2,4,6-cyclohexanehexaol]	hair growth activity was not confirmed	0.35 ± 0.09	0.35 ± 0.09	4.4 ± 0.3	4.4 ± 0.5	–	–	–	–	–	–	–	–	–
OC1C(O)C(O)C(O)C(O)C1O [L-chiro-inositol]	hair growth activity was not confirmed	0.33 ± 0.08	0.33 ± 0.13	4.9 ± 0.7	4.8 ± 0.8	–	–	–	–	–	–	–	–	–
OC1C(O)C(O)C(O)C(O)C1O (stereo not drawn) [allo-inositol, cis-1,2,3,4-trans-5,6-cyclohexaneheaxol]	–	0.43 ± 0.02	0.40 ± 0.03	5.5 ± 0.3	5.5 ± 0.8	–	–	–	0.37 ± 0.03	0.40 ± 0.04	5.0 ± 0.5	5.2 ± 0.5	hair growth activity was not confirmed	–
OC1C(O)C(O)C(O)C(O)C1O (stereo not drawn) [epi-inositol, cis-1,2,3,4,5-trans-6-cyclohexanehexaol]	–	0.33 ± 0.09	0.32 ± 0.09	4.7 ± 0.6	4.5 ± 0.6	–	–	–	0.43 ± 0.06	0.45 ± 0.09	5.2 ± 0.3	5.3 ± 0.4	hair growth activity was not confirmed	–
